Converted amounts (≈) assume the structure as drawn. Read-outs that look alike come from different tables or passages of the source.
Tests used:
Jurkat T cells [1] = experiment: Proliferation assay, Jurkat T cells (Hoechst 33258 DNA content); assay type: cell-based; settings: 72 h
Description: Cells were maintained at 37° C. in a 5% CO2 humidified atmosphere. Cells were passaged every 2-3 days and discarded after 15 passages. […] Final dilutions were made in culture medium.
Proliferation assay. […] IC50 values were determined using nonlinear regression plots on GraphPad Prism6. Values are means±SE of three independent experiments. Where indicated, the antiproliferative effect was evaluated in the presence of 100 μM uridine.^32

PHA-stimulated PBMC [2] = experiment: Immunosuppression assay, PHA-stimulated PBMC proliferation; assay type: cell-based
Description: Immunosuppression assay. PBMCs were isolated via the Ficoll/Isopaque (Lymphoprep), density gradient centrifugation of buffy coat leukapheresis residues from the fresh blood samples of healthy donors. Purified cells were grown and maintained in culture medium at 37° C. in a 5% CO2 humidified atmosphere. […] IC50 values were determined using nonlinear regression plots on GraphPad Prism6. Values are means±SE of three independent experiments. Where indicated, the antiproliferative effect was evaluated in the presence of 100 μM uridine.

[3] = system: MDA MB231 (breast cancer cells); experiment: Cytotoxicity in human cancer cell lines, MDA MB231; assay type: cell-based; settings: MDA-MB-231, MDA MB231, 72 h
Source text: (§1) In the last phase of their study, the present inventors evaluated the effects of our hDHODH inhibitors on a series of human cancer cell lines.

[4] = system: A2780 (ovarian cancer cells); experiment: Cytotoxicity in human cancer cell lines, A2780; assay type: cell-based; settings: A2780, 72 h
Source text: as §1

[5] = system: PANC-1 (pancreatic cancer cells); experiment: Cytotoxicity in human cancer cell lines, PANC-1; assay type: cell-based; settings: PANC-1, 72 h
Source text: as §1

[6] = system: HEPG2 (liver hepatocellular cancer cells); experiment: Cytotoxicity in human cancer cell lines, HEPG2; assay type: cell-based
Source text: as §1

[7] = system: HCT-116 (colon cancer cells); experiment: Cytotoxicity in human cancer cell lines, HCT-116; assay type: cell-based; settings: HCT-116, 72 h
Source text: as §1

Serum stability = assay type: in vitro ADME; settings: 37° C.
Description: Serum stability. A solution of the selected compound in DMSO was added to human serum (sterile-filtered from human male AB plasma, Sigma-Aldrich), to obtain the desired final concentration with 2% of co-solvent. The resulting solution was shaken in an orbital shaker at 37° C. for 24 h. At appropriate time intervals (0, 0.5, 1, 4 and 24 hours), 300 μL of the reaction mixture were withdrawn and added to 600 μL of trifluoroacetic acid (TFA), 0.1% in acetonitrile in order to deproteinize the serum. The samples were vortexed, sonicated for 3 min and then centrifuged for 5 min at 2500×g. The clear supernatant was filtered and analyzed by RP-HPLC. HPLC analyses were performed on a HP 1100 chromatograph system (Agilent Technologies, Palo Alto, CA, USA), equipped with a quaternary pump (model G1311A), a membrane degasser (G1379A), and a diode-array detector (DAD) (model G1315B), integrated into the HP1100 system. Data analyses were processed using a HP ChemStation system (Agilent Technologies). The analytical column was a ZORBAX Eclipse XDB-C18 (4.6×150 mm, 5 μm, Agilent Technologies). The mobile phase consisted of acetonitrile 0.10% TFA/0.1% TFA 70/30 at flow-rate=1.0 mL/min. […] Single compound quantification was achieved using calibration curves that were obtained by analyzing standard solutions. The results are expressed as % of unmodified parent compound at 24 h.

[8] = Protein binding in vitro (ultrafiltration); assay type: in vitro ADME; settings: human serum protein binding
Description: Protein binding in vitro. Free- and protein-bound drug separation was achieved by ultrafiltration using commercially available membrane systems (Centrifree ultrafiltration devices with ultracel YM-T membrane, Merck). A solution of selected compound in DMSO was added to human serum (sterile-filtered from human male AB plasma, Sigma-Aldrich), to obtain the desired final concentration with 2% of co-solvent. 1 mL of the solution obtained from the sample reservoir of the ultrafiltration device was gently shaken in an orbital shaker at 37° C. for 1 h. […] The concentrations of the compounds in the ultrafiltrate and filtrate were determined using reverse-phase HPLC and the chromatographic conditions described above. […] The recovery of the ultrafiltration process was calculated in order to discover whether any compound was lost during ultrafiltration, considering the limited solubility of tested compounds.

U937 [9] = experiment: CFSE-based cytotoxic activity assay, U937; assay type: cell-based; settings: U937, 0.01-10 μM, 3 days, FIG. 5A
Description: (§5) CFSE-based cytotoxic activity assay. […] The same experiments were repeated in the presence of uridine 100 μM. Cells were harvested and 1 μg/ml of propidium iodide was added to assign the ratio of cell death. The percentage of specific lysis was calculated as described and in accordance with the following equation: [dead targets in sample (%)−spontaneously dead targets (%))/(100−spontaneously dead targets (%))]×100. Spontaneous release was obtained by incubating cell lines in medium supplemented with the corresponding percentage of DMSO used for the dilution of compounds, whereas maximal release was obtained after treatment with triton solution.

THP1 [10] = experiment: CFSE-based cytotoxic activity assay, THP1; assay type: cell-based; settings: THP1, 0.01-10 μM, 3 days, FIG. 5A
Description: as §5

U937 [11] = experiment: Differentiation assay, U937 (CD11b); assay type: cell-based, human
Description: (§2) Cell lines and drug treatment.
(§3) Flow cytometric analysis. The expression of CD11b (PE-conjugated BD Bioscience San Jose, CA, USA), and CD14 (FITC-conjugated Beckam Coulter CA, USA), cell surface molecules was determined by flow cytometry analysis. […] Samples were acquired on a FACS Calibur and dead cells were excluded from the analyses, according to the use of propidium iodide (Sigma-Aldrich, Milan, Italy). Data were processed using Kaluza software version 1.2 (Beckman Coulter Fullerton, CA).
(§4) Differentiation assay. 1×10^4 cells (THP1 and U937), were plated in 96 well round-bottom plates and DHODH inhibitors were added, from 0.1 μM to 10 μM, to a volume of 200 μl of medium. The differentiation kinetics was monitored from day 1 to day 4 for U937, and to day 5 for THP1. Cells were washed and either stained with CD11b (U937), or with CD11b and CD14 (THP1), as described above. The differentiation assay was also performed in the presence of uridine 100 μM and analyzed on day 3

THP1 [12] = experiment: Differentiation assay, THP1 (CD14); assay type: cell-based, human
Description: as §2, §3, §4

[13] = 24 h, pH 7.4
Description: Solubility assay at pH 7.4. […] The samples were shaken in an orbital shaker at 25° C. for 24 h. These suspensions were filtered through a PTFE 0.45 m filter (VWR), and the solutions were chromatographically analyzed. […] LC analysis was performed using an Agilent Zorbax SB-Phenyl Column (4.6×250, 5 μm). […] The analyses started with 40% of eluent B and the following gradient profile was used: (time min, % B) 18.0, 100%; 26.0, 100%; 28.0, 40%. […] Single compound quantification was made using the relative calibration curve which was obtained by analyzing standard solutions in MeOH. Solubility is expressed as μM concentration of the saturated solution.

recombinant hDHODH = recombinant hDHODH (Homo sapiens (Human), UniProt Q02127); experiment: hDHODH inhibition assay (DCIP reduction); assay type: biochemical
Description: Protein expression and purification. […] The vector produces hDHODH as an N-terminal GST-fusion protein. The plasmid pFN2A-hDHODH was transformed into BL21 (DE3), pyrD E. coli cells for protein production. Cells were grown at 37° C. in LB medium supplemented with 0.1 mM flavin mononucleotide. […] Triton X-100 was added to the lysate, to a final concentration of 1%, before centrifugation at 14000×g for 40 min at 4° C. The clarified supernatant was incubated with DNase I (Sigma Aldrich), for 30 min at room temperature, supplemented with 2 mM DTT and filtered through a 0.45 μm syringe filter. The GST-fused enzyme was purified from the bacterial lysate using affinity chromatography on immobilized glutathione-sepharose columns and fast protein liquid chromatography (FPLC). The GST tag was not removed for further studies.
hDHODH inhibition assay. Inhibitory activity was assessed by monitoring the reduction of 2,6-dichloroindophenol (DCIP), which is associated with the oxidation of dihydroorotate as catalyzed by the DHODH enzyme. The enzyme was preincubated for five minutes at 37° C. in Tris-buffer solution (pH 8.0), with coenzyme Q10 (100 μM), with the compounds to be tested used at different concentrations (final DMSO concentration 0.1% v/v), with DCIP (50 μM). The reaction was initiated by the addition of DHO (500 μM), and the reduction was monitored at λ=650 nm. […] Values are means±SE of three independent experiments.

[14] = log D (pH 7.4) shake-flask; assay type: physicochemical; settings: n-octanol/PBS
Description: C log P and log D (pH 7.4). […] The partition coefficients between n-octanol and PBS at pH 7.4 (log D^7,4), were obtained using the shake-flask technique at room temperature. In the shake-flask experiments, 50 mM of phosphate buffered saline pH 7.4 was used as the aqueous phase. The organic (n-octanol), and aqueous phases were mutually saturated by shaking for 4 h. The compounds were solubilized in the buffered aqueous phase at the highest concentration compatible with solubility and appropriate amounts of n-octanol were added. The two phases were shaken for about 20 min, by which time the partitioning equilibrium of solutes had been reached, and then centrifuged (10000 rpm, 10 min). The concentration of the solutes was measured in the aqueous phase by UV spectrophotometer (Varian Cary 50BIO); absorbance values (recorded for each compound at the wavelength of maximum absorption), were interpolated in calibration curves obtained using standard solutions of the compounds (r^2>0.99). Each log D value is an average of at least six measurements.

Jurkat T cells [15] = experiment: Cytotoxicity assay, Jurkat T cells (CellTox green); assay type: cell-based; settings: 72 h, concentration causing significant (≥30%) cytotoxic effect
Description: Cell culture and drug treatment. […] Cells were maintained at 37° C. in a 5% CO2 humidified atmosphere. Cells were passaged every 2-3 days and discarded after 15 passages. […] Final dilutions were made in culture medium.
Cytotoxicity assay. […] Cells (5×10^3/well), were seeded in a white-opaque 96-well plate and exposed to increasing concentrations (0.001-100 μM), of each compound or vehicle (DMSO), for 72 h. Values are means±SE of three independent experiments and represent the concentrations that cause significant (≥30%), cytotoxic effects.

PHA-stimulated PBMC [16] = settings: inhibition of PHA-stimulated PBMC proliferation; value from ref. 29; read-out: Immunosuppression IC50 ± SE; cited from earlier work
[17] = with uridine, read-out: Cytotoxicity IC50 with Uridine
[18] = in vitro assay, means ± SE of three experiments, read-out: hDHODH IC50 ± SE
[19] = enzymatic assay, values in text, read-out: hDHODH IC50

Sequence of recombinant hDHODH (Q02127 31-395): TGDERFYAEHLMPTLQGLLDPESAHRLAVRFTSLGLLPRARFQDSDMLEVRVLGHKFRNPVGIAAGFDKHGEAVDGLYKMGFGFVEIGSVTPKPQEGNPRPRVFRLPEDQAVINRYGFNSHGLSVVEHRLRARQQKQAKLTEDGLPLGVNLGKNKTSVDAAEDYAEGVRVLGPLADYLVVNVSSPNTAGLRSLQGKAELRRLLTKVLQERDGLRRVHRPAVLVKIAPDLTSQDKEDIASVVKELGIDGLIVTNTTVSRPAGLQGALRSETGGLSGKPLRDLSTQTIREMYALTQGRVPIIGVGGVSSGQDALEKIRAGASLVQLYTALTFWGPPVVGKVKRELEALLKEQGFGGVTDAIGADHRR

Cc1c(-c2ccc(-c3ccccc3F)cc2)nc2ccc(F)cc2c1C(=O)O [Brequinar, brequinar]
IC50 (Jurkat T cells [1]; in the presence of 100 μM uridine, read-out: Proliferation IC50 ± SE + Uridine): 94200 ± 2080 nM | IC50 (Jurkat T cells [1]; read-out: Proliferation IC50 ± SE): 910 ± 70 nM | antiproliferative effect on PHA-activated PBMCs, times greater than teriflunomide (PHA-stimulated PBMC [2]): 10 times | IC50 ([3]; read-out: Cytotoxicity IC50): 1300 nM | IC50 [3, 17]: > 100000 nM | IC50 ([4]; read-out: Cytotoxicity IC50): < 100 nM | IC50 [4, 17]: 15500 nM | IC50 ([5]; read-out: Cytotoxicity IC50): 280 nM | IC50 [5, 17]: < 100 nM | IC50 ([6]; HEPG2, 72 h, with uridine, read-out: Cytotoxicity IC50 with Uridine): > 10000 nM | IC50 ([6]; HepG2, 72 h, read-out: Cytotoxicity IC50): 46 nM | IC50 ([7]; read-out: Cytotoxicity IC50): 97 nM | IC50 [7, 17]: 3000 nM | % compound after 24 h in human serum (Serum stability): 98% | % bound [8]: 98.83% | cytotoxicity (U937 [9]): strong and concentration-dependent cytotoxicity | cytotoxicity (THP1 [10]): strong and concentration-dependent cytotoxicity | myeloid differentiation, CD11b expression (U937 [11]; U937, FIG. 6A): strong differentiation | differentiation when uridine is added (U937 [11]; U937, uridine 100 μM, day 3, FIG. 6C): reversed | myeloid differentiation, CD14 expression (THP1 [12]; THP1, FIG. 6B): strong differentiation | differentiation when uridine is added (THP1 [12]; THP1, uridine 100 μM, day 3, FIG. 6D): reversed | Solubility in PBS with 2% DMSO [13]: 449 µM

Cn1nc(O)c(C(=O)Nc2c(F)c(F)c(-c3ccccc3)c(F)c2F)n1 [Compound 2]
IC50 (recombinant hDHODH; [18]): 45 ± 13 nM

O=C(Nc1c(F)c(F)c(-c2ccccc2)c(F)c1F)c1c(O)nn2ccccc12 [Compound 4, 2-Hydroxy-N-(2,3,5,6-tetrafluoro-[1,1′-biphenyl]-4-yl)pyrazolo[1,5-a]pyridine-3-carboxamide]
times more potent than teriflunomide (hDHODH) (recombinant hDHODH; enzymatic assay, ratio of IC50): 320 times

Cc1cccc2c(C(=O)Nc3c(F)c(F)c(-c4ccccc4)c(F)c3F)c(O)nn12 [Compound 5, 2-Hydroxy-7-methyl-N-(2,3,5,6-tetrafluoro-[1,1′-biphenyl]-4-yl)pyrazolo[1,5-a]pyridine-3-carboxamide]
IC50 (recombinant hDHODH; [19]): 4.3 nM

Cn1c(=O)c(C(=O)Nc2c(F)c(F)c(-c3ccccc3)c(F)c2F)c2ccccn21 [Compound 7, 1-Methyl-2-oxo-N-(2,3,5,6-tetrafluoro-[1,1′-biphenyl]-4-yl)-1,2-dihydropyrazolo[1,5-a]pyridine-3-carboxamide]
IC50 (recombinant hDHODH; [18]): > 5000 nM

O=C(Nc1ccc(Oc2ccccc2)cc1)c1c(O)nn2ccccc12 [Compound 8, 2-Hydroxy-N-(4-phenoxyphenyl)pyrazolo[1,5-a]pyridine-3-carboxamide]
IC50 (recombinant hDHODH; [19]): 760 nM | IC50 (recombinant hDHODH; [18]): 760 ± 136 nM

Cc1cc(NC(=O)c2c(O)nn3ccccc23)ccc1Oc1ccccc1 [Compound 9, 2-Hydroxy-N-(3-methyl-4-phenoxyphenyl)pyrazolo[1,5-a]pyridine-3-carboxamide]
IC50 (recombinant hDHODH; [18]): 480 ± 31 nM

Cc1cc(Oc2ccccc2)c(C)cc1NC(=O)c1c(O)nn2ccccc12 [Compound 10, N-(2,5-Dimethyl-4-phenoxyphenyl)-2-hydroxypyrazolo[1,5-a]pyridine-3-carboxamide]
IC50 (recombinant hDHODH; [19]): 43 nM | IC50 (recombinant hDHODH; [18]): 43 nM

O=C(Nc1c(F)c(F)c(-c2ccccc2)c(F)c1F)c1c(O)nn2c1CCCC2 [Compound 30, 2-Hydroxy-N-(2,3,5,6-tetrafluoro-[1,1′-biphenyl]-4-yl)-4,5,6,7-tetrahydropyrazolo[1,5-a]pyridine-3-carboxamide]
IC50 (recombinant hDHODH; [19]): 5.9 nM

O=C(Nc1c(F)c(F)c(-c2cccc(F)c2)c(F)c1F)c1c(O)nn2ccccc12 [Compound 32, 2-Hydroxy-N-(2,3,3′,5,6-pentafluoro-[1,1′-biphenyl]-4-yl)pyrazolo[1,5-a]pyridine-3-carboxamide]
IC50 (recombinant hDHODH; [19]): 2 nM | logD [14]: > 3

O=C(Nc1c(F)c(F)c(-c2cccc(C(F)(F)F)c2)c(F)c1F)c1c(O)nn2ccccc12 [Compound 33, 2-Hydroxy-N-(2,3,5,6-tetrafluoro-3′-(trifluoromethyl)-[1,1′-biphenyl]-4-yl)pyrazolo[1,5-a]pyridine-3-carboxamide]
IC50 (recombinant hDHODH; [19]): 2.3 nM | logD [14]: > 3

C/C(O)=C(\C#N)C(=O)Nc1ccc(C(F)(F)F)cc1 [Teriflunomide, teriflunomide]
Cytotoxicity (effect ≥30%) (Jurkat T cells [15]): 53 ± 3 µM | Solubility in PBS [13]: 2692 µM (≈ 727 µg/mL) | IC50 (PHA-stimulated PBMC [16]): 54300 nM
